Laboratory results reported in ChEMBL document CHEMBL3045362, “Iodine catalyzed one-pot synthesis of chloro-substituted linear and angular indoloquinolines and in vitro antiproliferative activity study of different indoloquinolines” (Med Chem Res, 2013).
Values after ≈ are worked out from the molar mass of the structure shown.

Columns and labels:
MCF7 = assay: Cytotoxicity against Homo sapiens (human) MCF-7 cells assessed as survival after 48 hr by MTT assay; assay type: functional, cell-based; settings: MCF7, 48 h
HepG2 = assay: Cytotoxicity against Homo sapiens (human) HepG2 cells assessed as survival after 48 hr by MTT assay; assay type: functional, cell-based; settings: HepG2, 48 h

Row | Compound | IC50 (MCF7) | IC50 (HepG2)
1 | c1ccc2[nH]c3nc4ccccc4c-3cc2c1 | > 1000 µg/mL | > 1000 µg/mL
2 | c1ccc2c(c1)ccc1cc3c(nc12)[nH]c1ccccc13 | 71.4 µg/mL (≈ 266 µM) | 98.1 µg/mL (≈ 366 µM)
3 | Cc1cccc2cc3c(nc12)[nH]c1ccccc13 | 5.5 µg/mL (≈ 23.7 µM) | 5.4 µg/mL (≈ 23.2 µM)
4 | Brc1ccc2cc3c(nc2c1)[nH]c1ccccc13 | 42.8 µg/mL (≈ 144 µM) | 34 µg/mL (≈ 114 µM)
